# Measured values published in ChEMBL document CHEMBL3580638, “Targeting HER-2 over expressed breast cancer cells with 2-cyclohexyl-N-[(Z)-(substituted phenyl/furan-2-yl/thiophene-2-yl)methylidene]hydrazinecarbothioamide” (Bioorg Med Chem Lett, 2014).
# Active and inactive are the calls of the source. No cut-off for these calls is given here.
# Tests used:
# SK-BR-3 [1] = experiment: Decrease in ALDH activity in human SKBR3 cells overexpressing HER2 assessed as ALDH-positive population by flow cytometry in presence of ALDH inhibitor DEAB (reference value: 0.7%); assay type: functional; design: scale not given: the % may be the effect or the level left
# SK-BR-3 [2] = experiment: Decrease in ALDH activity in human SKBR3 cells overexpressing HER2 assessed as ALDH-positive population by flow cytometry in absence of ALDH inhibitor DEAB (reference value: 20%); assay type: functional; design: scale not given: the % may be the effect or the level left
# MCF7 [3] = experiment: Cytotoxicity against human MCF7 cells assessed as cell growth inhibition after 48 hrs by WST-1 assay; assay type: functional, cell-based; details: MCF7, 48 h
# MDA-MB-468 [4] = experiment: Cytotoxicity against human MDA-MB-468 cells assessed as cell growth inhibition after 48 hrs by WST-1 assay; assay type: functional, cell-based; details: MDA-MB-468, 48 h
# [5] = Cytotoxicity against human SKBR3 cells overexpressing HER2 assessed as cell growth inhibition after 48 hrs by WST-1 assay; assay type: functional, cell-based; details: SK-BR-3, 48 h
# MDA-MB-231 [6] = experiment: Cytotoxicity against human MDA-MB-231 cells assessed as cell growth inhibition after 48 hrs by WST-1 assay; assay type: functional, cell-based; details: MDA-MB-231, 48 h
# [7] = Decrease in HER2 expression in human SKBR3 cells overexpressing HER2 by immunohistochemistry staining; assay type: functional, cell-based; details: SK-BR-3
# SK-BR-3 [8] = experiment: Decrease in ALDH activity in human SKBR3 cells overexpressing HER2 assessed as reduction in ALDH-positive population at 30 uM after 72 hrs by Aldefluor assay; assay type: functional
# MCF7 [9] = experiment: Cytotoxicity against human MCF7 cells assessed as cell growth inhibition at 300 uM after 48 hrs by WST-1 assay; assay type: functional, cell-based
# MDA-MB-231 [10] = experiment: Cytotoxicity against human MDA-MB-231 cells assessed as cell growth inhibition at 300 uM after 48 hrs by WST-1 assay; assay type: functional, cell-based
# MDA-MB-468 [11] = experiment: Cytotoxicity against human MDA-MB-468 cells assessed as cell growth inhibition at 300 uM after 48 hrs by WST-1 assay; assay type: functional, cell-based
# SK-BR-3 [12] = experiment: Inhibition of cell adhesion in human SKBR3 cells overexpressing HER2 at 25 uM after 30 to 90 mins by microtiter plate reader analysis; assay type: functional
# MCF7 [13] = experiment: Inhibition of cell migration in human MCF7 cells at 25 uM after 8 hrs by microtiter plate reader analysis; assay type: functional; details: MCF7, 8 h
# SK-BR-3 [14] = experiment: Inhibition of cell migration in human SKBR3 cells overexpressing HER2 at 25 uM after 8 hrs by microtiter plate reader analysis; assay type: functional; details: SK-BR-3, 8 h
# MDA-MB-231 [15] = experiment: Inhibition of cell migration in human MDA-MB-231 cells at 25 uM after 8 hrs by microtiter plate reader analysis; assay type: functional; details: MDA-MB-231, 8 h
# MCF7 [16] = experiment: Inhibition of cell adhesion in human MCF7 cells at 25 uM after 30 to 90 mins by microtiter plate reader analysis; assay type: functional
# MDA-MB-231 [17] = experiment: Inhibition of cell adhesion in human MDA-MB-231 cells at 25 uM after 30 to 90 mins by microtiter plate reader analysis; assay type: functional
SMILES,IC50 (MCF7 [3]),IC50 (MDA-MB-468 [4]),IC50 [5],IC50 (MDA-MB-231 [6]),inhibition [7],inhibition (MCF7 [9]),inhibition (MDA-MB-468 [11]),further results
CC[C@@H](C(=O)[C@@H](C)[C@@H](O)[C@H](C)[C@@H]1O[C@@H]([C@@H](CC)C(=O)O)CC[C@@H]1C)[C@H]1O[C@]2(C=C[C@@H](O)[C@]3(CC[C@@](C)([C@H]4CC[C@](O)(CC)[C@H](C)O4)O3)O2)[C@H](C)C[C@@H]1C [SALINOMYCIN],–,–,–,–,–,–,–,Activity (SK-BR-3 [1]): 0.6%; Activity (SK-BR-3 [2]): 30%
Oc1ccc(/C=N\NC(=S)NC2CCCCC2)c(O)c1,105 µM,44.6 µM,27.7 µM,56.6 µM,–,–,–,–
Oc1ccc(/C=N\NC(=S)NC2CCCCC2)cc1,50.4 µM,242 µM,29.9 µM,115 µM,Active,–,–,inhibition (SK-BR-3 [8]): Active
O=[N+]([O-])c1ccc(/C=N\NC(=S)NC2CCCCC2)cc1,–,–,41 µM,–,–,inactive,inactive,inhibition (MDA-MB-231 [10]): inactive
S=C(N/N=C\c1cccs1)NC1CCCCC1,49.8 µM,337 µM,30.4 µM,58.6 µM,Active,–,–,inhibition (SK-BR-3 [8]): Active
O=[N+]([O-])c1cccc(/C=N\NC(=S)NC2CCCCC2)c1,–,–,34.6 µM,84.8 µM,–,inactive,inactive,–
S=C(N/N=C\c1ccco1)NC1CCCCC1,–,–,45.7 µM,141 µM,–,inactive,inactive,–
O=c1[nH]cc(F)c(=O)[nH]1 [FLUOROURACIL],34.5 µM,–,38.9 µM,77.3 µM,–,–,–,–
COc1ccc(/C=N\NC(=S)NC2CCCCC2)cc1OC,99.2 µM,–,47.9 µM,–,–,–,inactive,inhibition (MDA-MB-231 [10]): inactive
CN(C)c1ccc(/C=N\NC(=S)NC2CCCCC2)cc1,51.1 µM,280 µM,31.2 µM,125 µM,–,–,–,–
S=C(N/N=C\c1ccc2c(c1)OCO2)NC1CCCCC1,–,–,61.6 µM,–,–,inactive,inactive,inhibition (MDA-MB-231 [10]): inactive
CCOc1ccc(/C=N\NC(=S)NC2CCCCC2)cc1,166 µM,252 µM,29.9 µM,68.2 µM,Active,–,–,Activity (SK-BR-3 [1]): 0.7%; Activity (SK-BR-3 [2]): 11.1%; inhibition (SK-BR-3 [8]): Active
O=[N+]([O-])c1ccccc1/C=N\NC(=S)NC1CCCCC1,–,–,46.5 µM,118 µM,–,inactive,inactive,–
S=C(N/N=C\c1ccc(Cl)cc1)NC1CCCCC1,91.4 µM,41.6 µM,32.2 µM,38.3 µM,–,–,–,–
Oc1cccc(/C=N\NC(=S)NC2CCCCC2)c1,–,32.2 µM,25.6 µM,24.5 µM,Active,inactive,–,inhibition (SK-BR-3 [8]): Active
COc1cccc(/C=N\NC(=S)NC2CCCCC2)c1,49.9 µM,46.7 µM,30.9 µM,88.9 µM,Active,–,–,"inhibition at 25 µM (SK-BR-3 [12]): 45.6%; Activity (SK-BR-3 [1]): 0.7%; inhibition at 25 µM (MCF7 [13]): 32.4%; Activity (SK-BR-3 [2]): 9.5%; inhibition at 25 µM (SK-BR-3 [14]): 46.7%; inhibition at 25 µM (MDA-MB-231 [15]): 31.4%; inhibition at 30 µM (SK-BR-3 [8]; SK-BR-3, 72 h): 50%; inhibition at 25 µM (MCF7 [16]): 15.9%; inhibition at 25 µM (MDA-MB-231 [17]): 32.3%"
